Reference: US20240002379A1, “ASYMMETRIC CONJUGATE COMPOUNDS” (Pheon Therapeutics Ltd., priority 2016, published 2024)

Legend:
Format in all cases: cell-based
Conditions in all cases: MTT assay, 72 hour incubation
SW48 cell line = assay: MTT cytotoxicity assay, SW48
Experimental: (§1) Tumor cell lines were maintained in RPMI1640 medium supplemented with 10% heat-inactivated fetal bovine serum, 2 mM L-glutamine and 1 mM sodium pyruvate. 1800 cells per well were seeded in a volume of 180 μl in a 96-well flat bottom polystyrene plate. The cells were allowed to adhere overnight at 37° C. in a CO2 incubator. Ligands were initially formulated in DMSO, and stocks stored at −80° C. They were then further formulated at lox concentration in RPMI1640 medium. 20 ul of diluted samples were added into each treatment well. On each plate, blank wells with no cells, and untreated wells containing cells, were included. Plates were then cultured at 37° C. in a CO2 incubator for 72 hrs. Cytotoxicity was evaluated using a tetrazolium salt-based assay, the MTT assay. After 72 hours, the supernatant was removed from each well and 200 μl of a sterile filtered 500 μg/ml MTT solution in water added to each well. The plates were then incubated at 37° C. in a CO2 incubator for 4 hrs. The supernatant was then removed and the formazan crystals formed solubilized by adding 150 μl of DMSO to each well. The plate was then read on a plate reader at 540 nm, and percentage cell survival calculated as follows: ((mean absorbance treated wells at concentration x−mean absorbance blank wells)[…](mean absorbance untreated wells at concentration x−mean absorbance blank wells))×100. Data were plotted as concentration in nM vs. % cell survival in Microsoft Excel, and IC50 values (concentration where cell survival is reduced by a half) were determined from the graph.

LIM1215 cell line = assay: MTT cytotoxicity assay, LIM1215
Experimental: as §1

SW620 cell line = assay: MTT cytotoxicity assay, SW620
Experimental: as §1

COc1cc2c(cc1OCc1cccc(CC(=O)N3C[C@@H](C)c4c3cc(O)c3ccccc43)c1)NC(=O)[C@@H]1CCCCN1C2=O [Compound 143, (S)-3-((3-(2-((S)-5-Hydroxy-1-methyl-1,2-dihydro-3H-benzo[e]indol-3-yl)-2-oxoethyl)benzyl)oxy)-2-methoxy-7,8,9,10-tetrahydrobenzo[e]pyrido[1,2-a][1,4]diazepine-6,12(5H,6aH)-dione]
Not active: Cytotoxicity SW48 (72 hrs) (SW48 cell line) | Cytotoxicity LIM1215 (72 hours) (LIM1215 cell line) | Cytotoxicity SW620 (72 hours) (SW620 cell line)
